# According to patent US20020107197A1, “Ligands for G protein coupled receptors and methods of using them” (priority 2000, published 2002):
# Tests used:
# Type in all cases: cell-based
# GPR4 [1] = target: T1, GPR4 (Homo sapiens, UniProt P46093); experiment: ERK MAP kinase activation (phospho-ERK Western blot) in GPR4-infected Swiss 3T3 cells; conditions: PTX 100 ng/ml 12-16 h
# T1 construct: were used to generate full length GPR4, which was digested with EcoRI and Xba I and cloned into the pBs3HA vector; expressed in transfected cells
# Method: MAP kinases are key signaling intermediates of DNA synthesis and cell proliferation. Swiss 3T3 cells were infected with MSCV GPR4-ires-GFP or MSCV ires-GFP, and subsequently cells sorted by FACS for positive expression of GFP as described previously (Kabarowski et al. (2000) Proc Natl Acad Sci USA. 97, 12109-12114). Cells were plated in 6-well plates in DMEM containing 5% FBS, serum-starved overnight, and then treated lipids in DMEM for the indicated times. Cells were lysed on ice in RIPA buffer containing 50 mM Tris-HCl, pH 7.5, 1% Nonidet P-40, 0.5% deoxycholate,0.1% SDS, 150 mM NaCl, 2 mM EGTA, 25 mM sodium fluoride, 1 mM sodium orthovanadate, and 1× protease inhibitors (Sigma P8340). Lysates containing equal amounts of protein were separated on 10% SDS-polyacrylamide gels and transferred onto nitrocellulose membranes. Antibodies against phosphorylated ERK1/2 (Cell Signaling Technologies; Beverly, Mass.) were used to probe the membrane and the ECL system (Amersham) was used for detection. To normalize the amounts of protein loaded in each lane, membranes were stripped and re-probed with antibodies against total ERK (Cell Signaling Technologies). In some experiments, cells were pretreated with 100 ng/ml PTX for 12-16 h prior to SPC and LPC stimulation.
# GPR4 [2] = target: T1, GPR4; experiment: SRE luciferase reporter in GPR4-transfected HEK293 cells; conditions: PTX 100 ng/ml 16 h; C3-exoenzyme co-transfected
# Method: The serum-response element (SRE) reporter system is a sensitive assay for receptors of lipid factors (An et al. (1998) J Biol Chem 273, 7906-7910; An et al. (1999) Mol Pharmacol 55, 787-794). The SRE reporter system used herein (pSRE-Luc) was a gift from Dr. Songzhu An (UCSF), or may be purchased from Stratagene (La Jolla, Calif.). Both systems give identical results. HEK293 and HEK293GPR4 cells were cultured in RPMI1640 with 10% FBS in 10 cm dishes to ˜85% confluence. To the cells in each dish, pSRE-Luc (10 μg) was transfected in the presence of 60 μl LipofectAMINE reagent. Cells were seeded in 96-well plates 16 h after transfection, incubated for another 24 h in RPMI1640 with 10% FBS, and starved in serum-free medium for 16 h. SPC (dissolved in PBS to 10 mM) and other lipids (LPCs were dissolved in 70% ethanol. Other lipids were dissolved in PBS, 70-95% ethanol, or 100% MeOH) were diluted in serum free RPMI 1640 and added to the cells, followed by a 10 h incubation. Luciferase activity was measured in Microlite™ 1 plates (DYNEX Technologies, Inc., Virginia) using 60 μl of cell lysate and 20 μl luciferase substrate. PTX (100 ng/ml) was added during the 16 h serum starvation period and pcDNA1-C3 (encoding the C3-exoenzyme, 2 μg) was co-transfected with pSRE-Luc (10 μg). All experiments were performed in quadruplicate and were repeated at least three times. The Student's t test was performed using the GraphPad Instat software (San Diego, Calif.). p<0.05 was considered to be statistically significant.
# OGR1 = target: T2, OGR1 (Homo sapiens, UniProt Q15743); experiment: ERK activation in OGR1-infected Swiss 3T3 cells
# T2 construct: expressed in transfected cells
# GPR4 [3] = target: T1, GPR4; experiment: Single-cell intracellular calcium assay (fura-2) in GPR4-GFP-transfected MCF10A cells; conditions: PTX 100 ng/ml, 16 h pretreatment
# Method: Measurement of [Ca^2+]i, was performed as described previously in Xu et al. (2000) Nat Cell Biol 2, 261-267. Briefly, pGPR4-GFP-transfected MCF10A cells were grown in specialized glass-bottom dishes (Bioptech, Inc., Butler, Pa.) and loaded with fura-2 in HEPES buffered saline. Using a dual-wavelength spectrofluorometer (RFK-6002, Photon Technology Int'l, So. Brunswick, N.J.) coupled to an inverted fluorescence microscope (Olympus, IX-70, Lake Success, N.Y.), GFP-positive cells were identified using an excitation wavelength of 488 nm, a dichroic 505 nm long-pass filter and an emitter filter at bandpass of 535 nm (Chroma Technology, Brattleboro, Vt.). Measurements of [Ca^2+]i were performed on individual GPR4-GFP positive cells at excitation wavelengths of 340 and 380 nm and an emission wavelength of 510 nm. Conversion of the 340/380 ratio value into [Ca^2+]i in nM was estimated by comparing the cellular fluorescence ratio with ratios acquired using fura-2 (free acid) in buffers containing known Ca^2+ concentrations. [Ca^2+]i was then calculated as described by Grynkiewicz et al. (1985) J Biol Chem 260, 3440-3450. All calcium assays were performed in the presence of 1 mM EGTA in the assay buffers. Therefore, intracellular calcium release, not calcium influx, was analyzed.
# To test whether GPR4 is a receptor for SPC, MCF10A cells were transiently transfected with pGPR4-GFP.
# The GFP receptor fusion was used to identify positively transfected cells, and single-cell calcium assays were performed as described in our previous studies, such as Xu et al. (2000) Nat Cell Biol 2, 261-267.
# GPR4 [4] = target: T1, GPR4; experiment: DNA synthesis ([3H]thymidine incorporation) in GPR4-infected Swiss 3T3 cells; conditions: PTX 100 ng/ml for 16 h; GFP- and GPR4-GFP expressing cells
# Method: The effect of SPC and LPC on DNA synthesis was measured using [^3H] thymidine incorporation. Briefly, GPR4-ires-GFP- and GFP-Swiss 3T3 cells were plated in 96-well plates, serum-starved for 24 h, and treated with SPC, LPC, or other lipids in serum-free DMEM for 24 h. Cells were incubated with 0.75 μCi/ml [^3H]thymidine in serum-free DMEM for the last 18 h. Cells were harvested onto filter papers presoaked in 1% polyethylenimine using the automated cell harvester HARVEST 96. Incorporated [^3H]thymidine was counted in a 1450 Microbeta Trilux Liquid Scintillation and Luminescence Counter (Perkin-Elmer-Wallac, Inc.).
# T1 sequence (P46093 whole entry): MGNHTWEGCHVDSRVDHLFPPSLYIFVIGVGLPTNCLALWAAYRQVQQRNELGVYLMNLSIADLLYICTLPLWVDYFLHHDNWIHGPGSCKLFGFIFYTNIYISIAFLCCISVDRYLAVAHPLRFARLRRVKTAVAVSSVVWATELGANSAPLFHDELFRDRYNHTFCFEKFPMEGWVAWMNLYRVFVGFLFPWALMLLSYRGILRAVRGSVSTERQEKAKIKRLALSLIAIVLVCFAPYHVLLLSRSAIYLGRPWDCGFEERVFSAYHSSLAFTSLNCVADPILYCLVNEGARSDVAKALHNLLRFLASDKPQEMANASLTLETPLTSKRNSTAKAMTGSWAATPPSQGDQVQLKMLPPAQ
# T2 sequence (Q15743 whole entry, species assumed): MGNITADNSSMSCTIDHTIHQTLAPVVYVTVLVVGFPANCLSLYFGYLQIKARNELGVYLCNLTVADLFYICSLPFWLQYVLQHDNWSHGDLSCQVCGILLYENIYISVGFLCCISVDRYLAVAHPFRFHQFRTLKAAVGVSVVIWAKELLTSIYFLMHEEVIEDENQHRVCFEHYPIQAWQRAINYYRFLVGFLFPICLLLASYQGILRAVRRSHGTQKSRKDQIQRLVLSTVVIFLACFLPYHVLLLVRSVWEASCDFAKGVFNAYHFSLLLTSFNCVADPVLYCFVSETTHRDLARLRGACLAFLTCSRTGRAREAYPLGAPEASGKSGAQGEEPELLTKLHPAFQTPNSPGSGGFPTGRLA
substance,measurement,setting,value
pertussis toxin [PTX],PTX sensitivity of SPC-induced ERK activation,GPR4 [1],sensitive to PTX
same,inhibition of SRE-reporter activation by SPC and 16:0-LPC,GPR4 [2],partially inhibited SRE-reporter activation
same,PTX sensitivity of SPC-induced ERK activation,OGR1,PTX-insensitive
same,effect of PTX on [Ca2+]i response to SPC and LPC,GPR4 [3],completely abolished
same,effect of PTX on DNA synthesis stimulated by SPC,GPR4 [4],inhibited by PTX
